Measurements published in US20260265694A1, “USE OF A VITISIN COMPOUND FOR THE PRODUCTION OF HEMATOPOIETIC CELLS” (ETABLISSEMENT FRANCAIS DU SANG, priority 2022, published 2026).

tested on: CD34+ cells from peripheral blood; assay: AMPLIFICATION PROTOCOL: ex vivo amplification of hematopoietic progenitors; format: cell-based, human; settings: 10 μM, FIG. 1
Protocol: This is a strategy for the amplification of hematopoietic progenitors. The culture is formed as follows: CD34^+ cells from peripheral blood are isolated (as indicated in section II.A.1), and cultured for 12 days in Stem Span II medium (Stem Cell Technologies) supplemented with cytokines: SCF 100 ng/mL, FLT3-L 100 ng/mL, TPO 20 ng/mL, G-CSF 10 ng/mL. The amplification product is analyzed by quantification of proliferation (count on Malassez slides) and phenotypic analysis of CD34^+ cell subpopulations by flow cytometry. […] Vitisin B is also compared with the following stilbene-type molecules at 10 μM concentration: Resveratrol, Pallidol, E-Viniferin, Ampelopsin, Oxyresveratrol, Picateatannol, Gnetol
At the end of the hematopoietic cell amplification protocol, an analysis of cell proliferation and amplification of immature and committed cell populations is performed.
Cell proliferation is evaluated by counting cells on Malassez slides with Trypan blue exclusion of dead cells.
The amplification of cell populations is based on a phenotypic analysis relating to the evolution of the expression of membrane markers CD34 and CD133 by flow cytometry. These markers make it possible to define more or less immature cell populations organized hierarchically as follows: CD34^+CD133^+->CD34^+CD133^neg->CD34^negCD133^neg. To this end, cells are incubated with anti-CD34 (1:100,000) (BD Pharmingen) and anti-CD133 (1:100,000) (BD Pharmingen) antibodies for 15 minutes. The cells are then rinsed with a PBS solution and centrifuged (430×g, 10 min, 4° C.). After resuspension of the cell pellets in PBS, the cells are analyzed by flow cytometry (FACSCantoll, Becton Dickinson, San Jose, CA).
The proportions of each phenotypic population thus observed and the total amount of cells make it possible to calculate the rate of amplification of the most immature cells (CD34^+CD133+) compared with the amplification of more committed progenitors (CD34^+CD133^neg and CD34^negCD133^neg).

Row | Compound | amplification of the CD34+CD133neg subpopulation (erythrocyte potential)
1 | Oc1ccc(C=Cc2cc(O)cc(O)c2)cc1 [RESVERATROL, Resveratrol] | no effect

same assay, conditions: 10 μM, FIG. 2

Row | Compound | effect on the proportion and total amount of CD34+CD133neg cells
2 | Oc1cc(O)cc(/C=C/c2c(O)cccc2O)c1 [GNETOL, Gnetol] | only vitisin B has a convincing effect
3 | Oc1ccc(C=Cc2cc(O)cc(O)c2)cc1 [RESVERATROL, Resveratrol] | only vitisin B has a convincing effect
4 | Oc1cc(O)cc(/C=C/c2ccc(O)cc2O)c1 [OXYRESVERATROL, Oxyresveratrol] | only vitisin B has a convincing effect
5 | Oc1ccc(/C=C/c2cc(O)cc3c2[C@@H](c2cc(O)cc(O)c2)[C@H](c2ccc(O)cc2)O3)cc1 [E-VINIFERIN, E-Viniferin] | only vitisin B has a convincing effect
6 | O=C1c2c(O)cc(O)cc2O[C@H](c2cc(O)c(O)c(O)c2)[C@H]1O [AMPELOPSIN, Ampelopsin] | only vitisin B has a convincing effect
